According to patent US20040224358A1, “Method for discovering one or more peptides adapted for specific binding to a microorganism of interest” (priority 2002, published 2004):

Assays:
[1] = test system: lipopolysaccharides from E.coli; assay: Dot blot binding of membrane-absorbed peptides to FITC-LPS from E.coli; details: 0-20 μg peptide on PVDF membrane, FIG. 1(a)
Description: (§1) Varying amounts of each peptide (ranging from 0-20 μg in 5 μg increments) were absorbed at a flow rate of approximately 0.15 ml/min. The membrane was blocked with 3% gelatin in TBS for 30 minutes at room temperature with gentle agitation and then was washed three times with TBS. Isolated, fluorescently-labeled lipopolysaccharides (FITC-LPS) from E.coli and Salmonella (Sigma Chemical Co.) were diluted in TBS to a final concentration of […] and were then bound to the membrane at room temperature with gentle agitation. The membrane was then washed three times with TBS and imaged on a Storm 860 (Molecular Dynamics, Sunnyvale, Calif.) in blue fluorescence mode.

[2] = test system: lipopolysaccharides from Salmonella; assay: Dot blot binding of membrane-absorbed peptides to FITC-LPS from Salmonella; details: 0-20 μg peptide on PVDF membrane, FIG. 1(b)
Description: as §1

[3] = test system: E.coli 0157: H7 cells; assay: Whole-cell binding of E.coli to immobilized Cys-Cecropin P1 (HRP antibody/TMB, absorbance 650 nm); design: species or system E coli serotype 0157: H7 (non-pathogenic); details: immobilized peptide, E.coli 0157: H7 whole cells, FIG. 2
Description: The binding of cecropin P1 to whole E.colicells was tested as follows: Preparation of whole bacterial cells—E coli serotype 0157: H7 (non-pathogenic) cells from a frozen stock were grown overnight in Luria Broth Base (Life Technologies, Inc., Paisely, Scotland). The bacterial cells were collected by centrifugation at 9000×g for 5 min. The cell pellet was washed 2 times with PBS pH 7.2 and collected each time by centrifugation. The washed cell pellet was resuspended in PBS pH 7.2 to a final volume equivalent to the original culture volume. Optical density of the cell suspension was detected on a Beckmann DU840 spectrophotometer at an absorbance of 540 nm. An absorbance of 4.5 is approximately 3.5×10^9 cfu/ml.
Peptide immobilization—Cys-Cecropin P1 (a modified cecropin p1 prepared by solid phase peptide synthesis wherein cysteine is added to the C-terminus of cecropin p1) was diluted into PBS pH 6.5, 1 mM EDTA, 0.0001 mM DTT (Sigma Chemical Co., St. Louis, Mo.) for immobilization onto sulfhydryl-bind strip wells (Corning Inc., Corning, N.Y.). […]
Detection and color development—E.coli 0157: H7 cells (prepared as above) were added to each well containing immobilized cys-cecropin p1 (described as above). […] Absorbance was then measured on a Thermomax microplate reader (Molecular Devices, Sunnyvale, Calif.) at 650 nm.

Substance | binding to lipopolysaccharides from E. coli [1] | binding to lipopolysaccharides from Salmonella [2] | saturation of whole-cell binding occurs at a concentration of [3]
Buforin I | did not bind | did not bind | –
Cecropin P1 (SWLSKTAKKLENSAKKRISEGIAIAIQGGPR; Cecropin-P1; UniProt P14661 14-44, looked up) | did bind | did bind | 45 to 50 µg
Indolicidin | did bind | did bind | –
PGQ | did bind | did bind | –
